The text below walks through data of ChEMBL document CHEMBL1275446, “Stronger activity of human immunodeficiency virus type 1 protease inhibitors against clinical isolates of Plasmodium vivax than against those of P. falciparum” (Antimicrob Agents Chemother, 2008).

Assay [1] concerns Plasmodium falciparum. As to the kind of experiment: Antimicrobial activity against Plasmodium falciparum at ring stage. The assay is classed as functional, organism-based.
Assay [2] has as its system Plasmodium vivax. Briefly: Antimicrobial activity against Plasmodium vivax at ring stage.
Assay [3] deals with Plasmodium vivax. As to the kind of experiment: Antimicrobial activity against Plasmodium vivax at trophozoite stage. The assay is classed as functional, organism-based.
In assay [4] the test system is Plasmodium vivax. As to the kind of experiment: Antimicrobial activity against Plasmodium vivax harboring single copy of Pvmdr1 gene. The assay is classed as functional, organism-based.
Assay [5] has as its system Plasmodium falciparum. Briefly: Antimicrobial activity against Plasmodium falciparum harboring single copy of Pfmdr1 gene.
The test system of assay [6] is Plasmodium vivax. As to the kind of experiment: Antimicrobial activity against Plasmodium vivax harboring amplified Pvmdr1 gene. The assay is classed as functional, organism-based.
Assay [7] deals with Plasmodium falciparum. As to the kind of experiment: Antimicrobial activity against Plasmodium falciparum harboring amplified Pfmdr1 gene.

As a reminder, the IC50 is the concentration at which inhibition is half-maximal. In turn, `CC(C)(C)NC(=O)[C@@H]1C[C@@H]2CCCC[C@@H]2CN1C[C@@H](O)[C@H](Cc1ccccc1)NC(=O)[C@H](CC(N)=O)NC(=O)c1ccc2ccccc2n1` gave an IC50 in assay [1] of 8300 nM.
Take `CCN(CC)CCCC(C)Nc1ccnc2cc(Cl)ccc12` (centres undefined) [CHLOROQUINE]: the IC50 came out at 38 nM in assay [2] and 442 nM in assay [3].
For the molecule `OC(c1cc(C(F)(F)F)nc2c(C(F)(F)F)cccc12)C1CCCCN1` (centres undefined) [MEFLOQUINE], the IC50 worked out at 43 nM in assay [4]; 137 nM in assay [1]; 77 nM in assay [5]; 176 nM in assay [6]; 182 nM in assay [7].
In assay [1], `CC(C)c1nc(CN(C)C(=O)N[C@H](C(=O)N[C@@H](Cc2ccccc2)C[C@H](O)[C@H](Cc2ccccc2)NC(=O)OCc2cncs2)C(C)C)cs1` [RITONAVIR] gave an IC50 of 9660 nM.
